# Data from ChEMBL document CHEMBL5518206, “Hit-to-Lead Identification and Validation of a Triaromatic Pleuromutilin Antibiotic Candidate” (J Med Chem, 2024).
# Calls of active or inactive are those of the source. The rule behind the calls is not given here.
# Assays:
# Staphylococcus aureus [1] = experiment: (§1) Induction of resistant development in lefamulin 5 passages resistance developed Staphylococcus aureus USA300 FPR3757 assessed as fold increase in MIC at sub-MIC concentration measured after 22 passages with conjugate by serial passage assay; assay type: functional
# [2] = system: Staphylococcus epidermidis; experiment: Antibacterial activity against Staphylococcus epidermidis assessed as inhibition of visible growth incubated for 20 to 24 hrs by microbroth serial dilution assay; assay type: functional, organism-based; settings: time 20-24 hrs
# Staphylococcus aureus [3] = experiment: as §1, with “-(6-(6-(Piperazin-1-y1)-9H-purin-9-y)methyl)pyridin-3-y1)-1H-1,2,3-triazol-1-yl)-22-deoxypleuromutilin-16” for “lefamulin 5”, “18” for “22”; assay type: functional
# Staphylococcus aureus [4] = experiment: (§2) Induction of resistant development in lefamulin 5 passages resistance developed Staphylococcus aureus USA300 FPR3757 assessed as fold increase in MIC at sub-MIC concentration measured after 5 passages with conjugate by serial passage assay; assay type: functional
# Staphylococcus aureus [5] = experiment: as §2, with “in -(6-(6-(Piperazin-1-y1)-9H-purin-9-y)methyl)pyridin-3-y1)-1H-1,2,3-triazol-1-yl)-22-deoxypleuromutilin-16” for “in lefamulin 5”, “after 25” for “after 5”; assay type: functional
# [6] = Cardio-toxicity in human assessed as QT prolongation by measuring increase in mean QTc
# Listeria = experiment: Antibacterial activity against Listeria assessed as inhibition of visible growth incubated for 20 to 24 hrs by microbroth serial dilution assay; assay type: functional, organism-based; settings: time 20-24 hrs
# Staphylococcus aureus [7] = experiment: Induction of resistant development in lefamulin 5 passages resistance developed Staphylococcus aureus USA300 FPR3757 assessed as fold increase in MIC at sub-MIC concentration measured after 18 passages with conjugate by serial passage assay; assay type: functional
# Staphylococcus aureus [8] = experiment: Induction of resistant development in linezolid 5 passages resistance developed Staphylococcus aureus USA300 FPR3757 assessed as fold increase in MIC at sub-MIC concentration measured after 5 passages with conjugate by serial passage assay; assay type: functional
# [9] = Half life in pig urine at 10 mg/kg, po measured upto 240 mins by LC-MS/MS analysis; assay type: ADME, organism-based, Sus scrofa
# [10] = Cmax in NMRI female mouse at 60 mg/kg, sc by HPLC analysis; assay type: ADME, organism-based; settings: in vivo
# [11] = AUC (0 to infinity) in pig urine at 10 mg/kg, po measured upto 240 mins by LC-MS/MS analysis; assay type: ADME, organism-based, Sus scrofa; settings: in vivo, 4 h
# [12] = Elimination rate constant in NMRI female mouse at 60 mg/kg, sc by HPLC analysis; assay type: ADME, organism-based; settings: in vivo
# [13] = Tmax in pig plasma at 10 mg/kg, po measured upto 240 mins by LC-MS/MS analysis; assay type: ADME, organism-based, Sus scrofa
# [14] = Volume of distribution in NMRI female mouse at 30 mg/kg, iv by HPLC analysis; assay type: ADME, organism-based; settings: in vivo
# [15] = Bioavailability in pig plasma at 10 mg/kg, po measured upto 240 mins by LC-MS/MS analysis; assay type: ADME, organism-based, Sus scrofa
# [16] = Cmax in pig urine at 10 mg/kg, po measured upto 240 mins by LC-MS/MS analysis; assay type: ADME, organism-based, Sus scrofa
# [17] = Bioavailability in NMRI female mouse at 30 mg/kg, po by HPLC analysis; assay type: ADME, organism-based; settings: in vivo
# [18] = Half life in pig plasma at 3 mg/kg, iv measured upto 240 mins by LC-MS/MS analysis; assay type: ADME, organism-based, Sus scrofa
# [19] = Plasma concentration in pig at 10 mg/kg, po measured upto 240 mins by LC-MS/MS analysis; assay type: ADME, organism-based, Sus scrofa
# [20] = AUC (0 to infinity) in NMRI female mouse at 60 mg/kg, sc by HPLC analysis; assay type: ADME, organism-based; settings: in vivo
# [21] = AUC (0 to infinity) in NMRI female mouse at 30 mg/kg, po by HPLC analysis; assay type: ADME, organism-based; settings: in vivo
# [22] = Clearance in pig plasma at 10 mg/kg, po measured upto 240 mins by LC-MS/MS analysis; assay type: ADME, organism-based, Sus scrofa
# [23] = Volume of distribution in NMRI female mouse at 60 mg/kg, sc by HPLC analysis; assay type: ADME, organism-based; settings: in vivo
# [24] = Tmax in NMRI female mouse at 20 mg/kg, sc by HPLC analysis; assay type: ADME, organism-based; settings: in vivo
smiles,measurement,setting,value
C=C[C@]1(C)C[C@@H](OC(=O)CS[C@@H]2CC[C@@H](N)C[C@H]2O)[C@]2(C)[C@H](C)CC[C@]3(CCC(=O)[C@H]32)[C@@H](C)[C@@H]1O [LEFAMULIN],fold change (FC),Staphylococcus aureus [1],32
same,Activity,[2],inactive
same,fold change (FC),Staphylococcus aureus [3],32
same,fold change (FC),Staphylococcus aureus [4],4
same,fold change (FC),Staphylococcus aureus [5],64
same,QTc increase,[6],10 ms
same,Activity,Listeria,inactive
same,fold change (FC),Staphylococcus aureus [7],32
same,fold change (FC),Staphylococcus aureus [8],4
C=C[C@]1(C)C[C@@H](OC(=O)Cn2cc(-c3ccc(Cn4cnc5c(N6CCNCC6)ncnc54)nc3)nn2)[C@]2(C)[C@H](C)CC[C@]3(CCC(=O)[C@H]32)[C@@H](C)[C@@H]1O,half-life,[9],132 min
same,Cmax,[10],2560 ng/mL
same,AUC,[11],22.5 µg/mL/min
same,k el,[12],0.000102 s⁻¹
same,Tmax,[13],15 min
same,Vd,[14],3.5 L/kg
same,bioavailability,[15],6%
same,Cmax,[16],114 ng/mL
same,bioavailability,[17],0.3%
same,half-life,[18],75 min
same,concentration at 4 h,[19],49.7 ng/mL
same,AUC,[20],428 µg/mL/min
same,AUC,[21],1.6 µg/mL/min
same,CL/F,[22],1420 mL/min/kg
same,Vd,[23],22 L/kg
same,Tmax,[24],15 min
